The results in this text go back to PubChem BioAssay AID651987 (The Scripps Research Institute Molecular Screening Center, 2013).

Active and inactive are the calls of the source.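 How the source made its calls: active means reversible inhibitor in any panel, blocking the enzyme before filtration but under 50% inhibition after two or more filtrations; inactive means irreversible inhibitor in every panel.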

Experiment [1] concerns the target Acyl-protein thioesterase 1 (Homo sapiens) (UniProt O75608). The experiment can be described thus: reversibility of LYPLA1/LYPLA2 inhibition, late-stage follow-up, mechanism study, cell lysate, gel-based ABPP, fluorescence, gel filtration, HEK293T proteome (AID 651987). Conditions: HEK293T soluble proteome.
The target of experiment [2] is Acyl-protein thioesterase 2 (Homo sapiens) (UniProt O95372). The experiment is described as above. Conditions: HEK293T soluble proteome.
[3] abbreviates: LYPLA1, after 1 gel filtration, stronger effect = higher value.
Where [4] appears, read: LYPLA1, after 2 gel filtrations, stronger effect = higher value.
Setting [5] is: LYPLA1, stronger effect = higher value, concentration not given here.
The mark [6] stands for this setting: LYPLA2, after 1 gel filtration, stronger effect = higher value.
Where [7] appears, read: LYPLA2, after 2 gel filtrations, stronger effect = higher value.
Where [8] appears, read: LYPLA2, stronger effect = higher value, concentration not given here.

Sequence of Acyl-protein thioesterase 2 (Homo sapiens) (O95372 whole entry, looked up): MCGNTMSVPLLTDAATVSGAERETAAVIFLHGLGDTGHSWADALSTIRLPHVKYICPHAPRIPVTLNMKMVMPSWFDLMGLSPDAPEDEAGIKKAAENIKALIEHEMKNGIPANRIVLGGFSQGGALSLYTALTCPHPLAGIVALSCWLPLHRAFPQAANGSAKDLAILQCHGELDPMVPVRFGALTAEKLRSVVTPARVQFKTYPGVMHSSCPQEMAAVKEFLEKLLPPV
Sequence of Acyl-protein thioesterase 1 (Homo sapiens) (O75608 whole entry, looked up): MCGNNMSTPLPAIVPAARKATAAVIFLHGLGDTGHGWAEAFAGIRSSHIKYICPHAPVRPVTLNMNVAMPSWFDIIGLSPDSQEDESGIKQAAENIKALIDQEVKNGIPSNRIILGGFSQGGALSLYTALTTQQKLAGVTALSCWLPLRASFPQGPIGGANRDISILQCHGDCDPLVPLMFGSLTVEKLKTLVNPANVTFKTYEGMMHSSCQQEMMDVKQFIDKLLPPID

For the molecule `O=C(CN1CCN(C(=O)c2ccco2)CC1)Nc1cc(C(F)(F)F)ccc1Cl`, the inhibition in experiment [1] (setting [3]) is 75%; in experiment [1] (setting [4]), 0%; in experiment [1] (setting [5]) it was 100%; in experiment [2] (setting [6]), 0%; in experiment [2] (setting [7]), 0%; in experiment [2] (setting [8]) it was 0% (inactive).

Turning to `O=C(N1CCCCC1)n1ccnn1`, the inhibition in experiment [1] (setting [3]) is 100%; in experiment [1] (LYPLA1, after 3 gel filtrations, stronger effect = higher value), 100%; in experiment [1] (setting [5]) it was 100% (inactive); in experiment [2] (setting [6]), 100%; in experiment [2] (LYPLA2, after 3 gel filtrations, stronger effect = higher value), 100%; in experiment [2] (setting [8]) it was 100% (inactive).

For the molecule `COc1ccc(N2CCN(C(=O)c3cc4c(s3)-c3ccccc3S(=O)(=O)C4)CC2)cc1`, the inhibition is 0% in experiment [1] (setting [3]); 0% in experiment [1] (setting [4]); 0% (inactive) in experiment [1] (setting [5]); 100% in experiment [2] (setting [6]); 0% in experiment [2] (setting [7]); 100% in experiment [2] (setting [8]).

By inhibition is commonly meant the relative decrease from the control value, in per cent.
